Assay results published in the NIST ThermoML archive (doi:10.1016/j.jct.2012.11.015).
Numbers after ± are expanded uncertainties.

What was measured:
[1] = xn = mol fraction of the nth substance listed; details: 101 kPa, Liquid, Vibrating tube method
[2] = Liquid; for mass density: Vibrating tube method
[3] = refractive index (Na D-line) (dimensionless); details: 298.15 K; 101.33 kPa; Liquid; Standard Abbe refractometry

CCCCCCCCCO [nonan-1-ol] + CN(C)C=O
mass density ([1]; 298.15 K, x2 = 0): 824.478 ± 0.62 kg/m3 | mass density ([1]; 298.15 K, x2 = 0.2201): 836.826 ± 0.43 kg/m3 | mass density ([1]; 298.15 K, x2 = 0.3969): 849.646 ± 0.31 kg/m3 | mass density ([1]; 298.15 K, x2 = 0.5458): 863.512 ± 0.22 kg/m3 | mass density ([1]; 298.15 K, x2 = 0.6515): 875.893 ± 0.17 kg/m3 | mass density ([1]; 298.15 K, x2 = 0.7321): 887.234 ± 0.14 kg/m3 | mass density ([1]; 298.15 K, x2 = 0.8042): 899.18 ± 0.11 kg/m3 | mass density ([1]; 298.15 K, x2 = 0.8644): 910.842 ± 0.092 kg/m3 | mass density ([1]; 298.15 K, x2 = 0.9168): 922.441 ± 0.078 kg/m3 | mass density ([1]; 298.15 K, x2 = 0.9596): 933.098 ± 0.067 kg/m3 | mass density ([1]; 303.15 K, x2 = 0): 821.044 ± 0.62 kg/m3 | mass density ([1]; 303.15 K, x2 = 0.2201): 833.085 ± 0.43 kg/m3 | mass density ([1]; 303.15 K, x2 = 0.3969): 845.647 ± 0.31 kg/m3 | mass density ([1]; 303.15 K, x2 = 0.5458): 859.175 ± 0.22 kg/m3 | mass density ([1]; 303.15 K, x2 = 0.6515): 871.335 ± 0.17 kg/m3 | mass density ([1]; 303.15 K, x2 = 0.7321): 882.498 ± 0.14 kg/m3 | mass density ([1]; 303.15 K, x2 = 0.8042): 894.281 ± 0.11 kg/m3 | mass density ([1]; 303.15 K, x2 = 0.8644): 905.742 ± 0.094 kg/m3 | mass density ([1]; 303.15 K, x2 = 0.9168): 917.225 ± 0.079 kg/m3 | mass density ([1]; 303.15 K, x2 = 0.9596): 927.834 ± 0.069 kg/m3 | mass density ([1]; 308.15 K, x2 = 0): 817.582 ± 0.61 kg/m3 | mass density ([1]; 308.15 K, x2 = 0.2201): 829.399 ± 0.43 kg/m3 | mass density ([1]; 308.15 K, x2 = 0.3969): 841.793 ± 0.31 kg/m3 | mass density ([1]; 308.15 K, x2 = 0.5458): 855.283 ± 0.22 kg/m3 | mass density ([1]; 308.15 K, x2 = 0.6515): 867.284 ± 0.17 kg/m3 | mass density ([1]; 308.15 K, x2 = 0.7321): 878.301 ± 0.14 kg/m3 | mass density ([1]; 308.15 K, x2 = 0.8042): 889.932 ± 0.11 kg/m3 | mass density ([1]; 308.15 K, x2 = 0.8644): 901.314 ± 0.095 kg/m3 | mass density ([1]; 308.15 K, x2 = 0.9168): 912.742 ± 0.081 kg/m3 | mass density ([1]; 308.15 K, x2 = 0.9596): 923.379 ± 0.071 kg/m3 | mass density ([1]; 313.15 K, x2 = 0): 814.098 ± 0.61 kg/m3 | mass density ([1]; 313.15 K, x2 = 0.2201): 825.49 ± 0.43 kg/m3 | mass density ([1]; 313.15 K, x2 = 0.3969): 837.685 ± 0.31 kg/m3 | mass density ([1]; 313.15 K, x2 = 0.5458): 851.074 ± 0.22 kg/m3 | mass density ([1]; 313.15 K, x2 = 0.6515): 862.916 ± 0.17 kg/m3 | mass density ([1]; 313.15 K, x2 = 0.7321): 873.711 ± 0.14 kg/m3 | mass density ([1]; 313.15 K, x2 = 0.8042): 885.08 ± 0.12 kg/m3 | mass density ([1]; 313.15 K, x2 = 0.8644): 896.217 ± 0.097 kg/m3 | mass density ([1]; 313.15 K, x2 = 0.9168): 907.487 ± 0.083 kg/m3 | mass density ([1]; 313.15 K, x2 = 0.9596): 918.072 ± 0.073 kg/m3

CCCCCCCCO [octan-1-ol]
speed of sound ([2]; 298.15 K, 101.33 kPa, Sing-around technique in a fixed-path interferometer): 1347.8 ± 1.5 m/s | mass density ([2]; 298.15 K, 101.33 kPa): 821.222 ± 0.21 kg/m3 | mass density ([2]; 303.15 K, 101 kPa): 818.209 ± 0.21 kg/m3 | mass density ([2]; 308.15 K, 101 kPa): 814.742 ± 0.21 kg/m3 | mass density ([2]; 313.15 K, 101 kPa): 810.629 ± 0.21 kg/m3 | refractive index [3]: 1.4273 ± 0.0009

CCCCCCCCO [octan-1-ol] + CN(C)C=O
mass density ([1]; 298.15 K, x2 = 0): 821.222 ± 0.21 kg/m3 | mass density ([1]; 298.15 K, x2 = 0.2198): 835.186 ± 0.17 kg/m3 | mass density ([1]; 298.15 K, x2 = 0.3728): 847.253 ± 0.14 kg/m3 | mass density ([1]; 298.15 K, x2 = 0.5208): 861.646 ± 0.12 kg/m3 | mass density ([1]; 298.15 K, x2 = 0.6277): 874.238 ± 0.11 kg/m3 | mass density ([1]; 298.15 K, x2 = 0.7118): 885.914 ± 0.097 kg/m3 | mass density ([1]; 298.15 K, x2 = 0.7877): 898.138 ± 0.087 kg/m3 | mass density ([1]; 298.15 K, x2 = 0.8519): 909.952 ± 0.078 kg/m3 | mass density ([1]; 298.15 K, x2 = 0.9085): 921.843 ± 0.071 kg/m3 | mass density ([1]; 298.15 K, x2 = 0.9556): 932.914 ± 0.065 kg/m3 | mass density ([1]; 303.15 K, x2 = 0): 818.209 ± 0.21 kg/m3 | mass density ([1]; 303.15 K, x2 = 0.2198): 831.811 ± 0.17 kg/m3 | mass density ([1]; 303.15 K, x2 = 0.3728): 843.584 ± 0.15 kg/m3 | mass density ([1]; 303.15 K, x2 = 0.5208): 857.568 ± 0.12 kg/m3 | mass density ([1]; 303.15 K, x2 = 0.6277): 869.964 ± 0.11 kg/m3 | mass density ([1]; 303.15 K, x2 = 0.7118): 881.458 ± 0.098 kg/m3 | mass density ([1]; 303.15 K, x2 = 0.7877): 893.435 ± 0.088 kg/m3 | mass density ([1]; 303.15 K, x2 = 0.8519): 905.109 ± 0.08 kg/m3 | mass density ([1]; 303.15 K, x2 = 0.9085): 916.796 ± 0.073 kg/m3 | mass density ([1]; 303.15 K, x2 = 0.9556): 927.592 ± 0.067 kg/m3 | mass density ([1]; 308.15 K, x2 = 0): 814.742 ± 0.21 kg/m3 | mass density ([1]; 308.15 K, x2 = 0.2198): 828.086 ± 0.17 kg/m3 | mass density ([1]; 308.15 K, x2 = 0.3728): 839.752 ± 0.15 kg/m3 | mass density ([1]; 308.15 K, x2 = 0.5208): 853.623 ± 0.12 kg/m3 | mass density ([1]; 308.15 K, x2 = 0.6277): 865.852 ± 0.11 kg/m3 | mass density ([1]; 308.15 K, x2 = 0.7118): 877.239 ± 0.1 kg/m3 | mass density ([1]; 308.15 K, x2 = 0.7877): 889.113 ± 0.09 kg/m3 | mass density ([1]; 308.15 K, x2 = 0.8519): 900.709 ± 0.081 kg/m3 | mass density ([1]; 308.15 K, x2 = 0.9085): 912.287 ± 0.074 kg/m3 | mass density ([1]; 308.15 K, x2 = 0.9556): 923.224 ± 0.068 kg/m3 | mass density ([1]; 313.15 K, x2 = 0): 810.629 ± 0.21 kg/m3 | mass density ([1]; 313.15 K, x2 = 0.2198): 823.708 ± 0.17 kg/m3 | mass density ([1]; 313.15 K, x2 = 0.3728): 835.263 ± 0.15 kg/m3 | mass density ([1]; 313.15 K, x2 = 0.5208): 849.056 ± 0.13 kg/m3 | mass density ([1]; 313.15 K, x2 = 0.6277): 861.125 ± 0.11 kg/m3 | mass density ([1]; 313.15 K, x2 = 0.7118): 872.405 ± 0.1 kg/m3 | mass density ([1]; 313.15 K, x2 = 0.7877): 884.137 ± 0.091 kg/m3 | mass density ([1]; 313.15 K, x2 = 0.8519): 895.506 ± 0.083 kg/m3 | mass density ([1]; 313.15 K, x2 = 0.9085): 907.01 ± 0.076 kg/m3 | mass density ([1]; 313.15 K, x2 = 0.9556): 917.847 ± 0.07 kg/m3
